Experimental data as given in ChEMBL document CHEMBL1156865, “Chemical delivery system of metaiodobenzylguanidine (MIBG) to the central nervous system” (J Med Chem, 2010).

Key:
[1] = Stability in Sprague-Dawley rat blood at 10 MBq assessed as radioactive compound recovery; assay type: ADME, tissue-based; conditions: whole blood, read-out: Stability
[2] = Stability in Sprague-Dawley rat brain assessed as unchanged parent compound level at 15 to 120 MBq, iv after 3 mins; assay type: ADME, organism-based; conditions: read-out: Stability
[3] = Stability in Sprague-Dawley rat brain assessed as unchanged parent compound level at 15 to 120 MBq, iv after 60 mins; assay type: ADME, organism-based; conditions: read-out: Stability
[4] = system: Brain; test: Stability in Sprague-Dawley rat brain assessed as polar radioactive metabolite level at 15 to 120 MBq, iv after 3 mins; assay type: ADME, organism-based; conditions: in vivo, 0.05 h
[5] = system: Brain; test: Stability in Sprague-Dawley rat brain assessed as polar radioactive metabolite level at 15 to 120 MBq, iv after 60 mins; assay type: ADME, organism-based; conditions: in vivo, 1 h
[6] = system: Brain; test: Drug uptake in Sprague-Dawley rat brain at 15 to 120 MBq, iv after 3 mins; assay type: ADME, organism-based; conditions: in vivo, 0.05 h
[7] = system: Brain; test: Drug uptake in Sprague-Dawley rat brain at 15 to 120 MBq, iv after 60 mins; assay type: ADME, organism-based; conditions: in vivo, 1 h

- remaining at 10 MBq [1]: > 90%
- remaining at 0.05 h [2]: 96%
- remaining at 1 h [3]: 59%
- Activity [4]: 4%
- Activity [5]: 41%
- Drug uptake [6]: 0.1 % ID/g
- Drug uptake [7]: 0.06 % ID/g
SMILES: [11CH3]N1C=C(C(=O)NC(=N)NCc2cccc(I)c2)Cc2ccccc21
